From patent US5124322A, “Dipeptide collagenase inhibitors” (Beecham Group p.l.c., priority 1988, dated 1992)
Read-outs that look alike come from different tables or passages of the source.

Target: T1, human lung fibroblast collagenase (Homo sapiens, UniProt P03956)
T1 construct: from culture supernatants from the human lung fibroblast cell line, WI-38; endogenous in cells; host or cells: WI-38 human lung fibroblast cell line (culture supernatant)
T1 sequence (P03956 100-469): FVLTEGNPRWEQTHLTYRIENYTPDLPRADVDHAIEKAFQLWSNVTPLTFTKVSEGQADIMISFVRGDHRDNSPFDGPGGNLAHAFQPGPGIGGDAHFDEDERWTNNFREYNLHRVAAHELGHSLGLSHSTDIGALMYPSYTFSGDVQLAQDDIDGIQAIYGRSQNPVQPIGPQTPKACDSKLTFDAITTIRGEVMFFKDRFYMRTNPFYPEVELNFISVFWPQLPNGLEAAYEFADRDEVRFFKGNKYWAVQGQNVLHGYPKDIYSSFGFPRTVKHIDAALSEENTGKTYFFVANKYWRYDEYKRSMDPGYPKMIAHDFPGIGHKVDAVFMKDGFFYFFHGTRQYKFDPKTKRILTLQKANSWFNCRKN
Assay: Collagenase inhibitor assay, human lung fibroblast collagenase (14C-collagen fibril degradation)
Format: biochemical
Conditions: collagenase from WI-38 culture supernatants
Procedure: The test is performed essentially as in Cawston and Barrett, Anal. Biochem. 99, 340-345 (1979). Compounds for testing are dissolved in methanol and added to collagenase (purified from cultures of rabbit bone or from culture supernatants from the human lung fibroblast cell line, WI-38) in buffer. In order to ensure that thiol collagenase inhibitors remained unoxidised, β-mercaptoethanol may be incorporated in the methanol solvent and/or the diluent buffers. The minimal direct effect of β-mercaptoethanol on the degradation of collagen by human or rabbit collagenase is controlled for. After a 5-15 min pre-incubation at 37° C., the assay tubes are cooled to 4° C. and ^14 C-acetylated rat skin […] collagen is added. The assay tubes are incubated at 37° C. overnight. The ^14 C-collagen forms insoluble fibrils which are the substrate for the enzyme.
To terminate the assay, the assay tubes are spun at 12000 rpm for 15 min. Undigested ^14 C-collagen is pelleted, while digested ^14 C-collagen is found as soluble peptides in the supernatant. A sample of the supernatant is taken for liquid scintillation counting.
The activity of collagenase inhibitors (IC50 : 50% inhibitory concentration) is expressed as that concentration of compound that inhibits a known (standard) concentration of enzyme by 50%.

[1] = * = +mercaptoethanol, read-out: IC50, Inhibition of human lung fibroblast collagenase, +mercaptoethanol
[2] = without mercaptoethanol, read-out: IC50, Inhibition of human lung fibroblast collagenase

IC50 [1]	IC50 [2]	Compound
190 nM	1500 nM	4-Chloro-2-mercapto-N-[2-(3-indolyl)-1-(S)-(methyl-aminocarbonyl)ethyl]-α-(2-methylpropyl)phenylpropanamide [Example 8]
250 nM	1800 nM	CNC(=O)[C@H](Cc1ccc(OC)cc1)NC(=O)C(Cc1ccc(Cl)cc1S)CC(C)C (stereo partly drawn) [Example 5, 4-Chloro-2-mercapto-N-[2-(4-methoxyphenyl)-1-(S)-(methylaminocarbonyl)ethyl]-α-(2-methylpropyl)phenylpropanamide]
